This passage reports activation and AC40 results from PubChem BioAssay AID651833 (Broad Institute, 2012).

The target of this test is Kelch-like ECH-associated protein 1 (Homo sapiens) + Nuclear factor erythroid 2-related factor 2 (Homo sapiens) (UniProt Q14145+Q16236). Briefly: Nrf2 nuclear translocation activators in cells, dose response, orthogonal assay for Keap1-Nrf2 interaction inhibitor project, PathHunter, U2OS cells, dry powder (AID 651833). Conditions: beta-gal luminescence, 3 h; for activation: at 38 µM (top of the series).

Molecules are shown by their SMILES. Where “and” joins values, the source holds several entries; their conditions need not be identical. Equal entries are not always repeated. Calls of active or inactive are those of the source.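 The calls were made as follows: active = fitted curve reaching 40% activation at or below the sample's highest valid tested dose; inconclusive = flat fit between 30% and 70%, or poor fit; inactive = the rest, including opposite-direction activity.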

Chain of Kelch-like ECH-associated protein 1 (Homo sapiens) + Nuclear factor erythroid 2-related factor 2 (Homo sapiens) (Q14145 whole entry, looked up): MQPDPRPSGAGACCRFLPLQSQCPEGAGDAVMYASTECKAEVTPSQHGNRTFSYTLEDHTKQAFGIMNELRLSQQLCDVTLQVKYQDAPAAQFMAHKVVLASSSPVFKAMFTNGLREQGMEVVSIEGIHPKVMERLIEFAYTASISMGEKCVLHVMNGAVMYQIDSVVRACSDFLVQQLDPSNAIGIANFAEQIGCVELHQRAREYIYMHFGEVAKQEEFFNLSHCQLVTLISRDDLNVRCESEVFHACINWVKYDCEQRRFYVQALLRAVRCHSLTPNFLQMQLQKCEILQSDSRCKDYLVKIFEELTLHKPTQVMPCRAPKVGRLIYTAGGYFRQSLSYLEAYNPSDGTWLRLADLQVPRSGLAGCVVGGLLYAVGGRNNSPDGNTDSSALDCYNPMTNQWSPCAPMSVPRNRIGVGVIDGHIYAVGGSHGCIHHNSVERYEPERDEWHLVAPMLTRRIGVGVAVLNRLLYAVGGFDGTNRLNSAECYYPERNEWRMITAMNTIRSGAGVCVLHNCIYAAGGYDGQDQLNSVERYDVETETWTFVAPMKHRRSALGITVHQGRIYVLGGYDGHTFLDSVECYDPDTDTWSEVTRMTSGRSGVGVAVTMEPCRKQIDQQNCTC
Chain of Kelch-like ECH-associated protein 1 (Homo sapiens) + Nuclear factor erythroid 2-related factor 2 (Homo sapiens) (Q16236 whole entry, looked up): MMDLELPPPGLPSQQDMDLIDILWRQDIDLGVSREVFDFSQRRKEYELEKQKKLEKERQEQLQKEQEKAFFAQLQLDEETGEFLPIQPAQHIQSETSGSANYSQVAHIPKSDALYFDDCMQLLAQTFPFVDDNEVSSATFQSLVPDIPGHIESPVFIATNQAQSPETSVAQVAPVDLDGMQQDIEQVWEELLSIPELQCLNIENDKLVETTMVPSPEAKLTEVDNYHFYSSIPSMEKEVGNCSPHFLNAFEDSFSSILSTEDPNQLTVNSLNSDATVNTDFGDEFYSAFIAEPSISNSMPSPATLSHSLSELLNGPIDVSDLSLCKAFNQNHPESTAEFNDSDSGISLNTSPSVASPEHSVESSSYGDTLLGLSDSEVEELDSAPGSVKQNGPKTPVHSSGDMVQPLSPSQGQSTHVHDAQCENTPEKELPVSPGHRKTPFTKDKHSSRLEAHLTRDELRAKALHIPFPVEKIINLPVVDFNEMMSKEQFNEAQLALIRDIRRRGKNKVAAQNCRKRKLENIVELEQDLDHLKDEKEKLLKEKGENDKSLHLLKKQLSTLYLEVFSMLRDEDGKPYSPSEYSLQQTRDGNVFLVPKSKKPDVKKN

On to `Cc1ccc(S(=O)(=O)NC(=O)[C@@H]2c3ccccc3CCN2C(=O)[C@@H]2CCCC[C@@H]2C(=O)O)cc1`, for which the activation was 6.05% (inactive) and 8.58% (inactive). On to `CC(=O)Nc1cc(NS(=O)(=O)c2c(C)cc(C)cc2C)c2ccccc2c1O`, for which the AC40 was 27.2 µM. With `C=CC(=O)NC[C@@H]1c2ccccc2CCN1C(=O)[C@@H]1CCCC[C@@H]1C(=O)O`, the activation was 6.96% (inactive). With `O=C(NC[C@@H]1c2ccccc2CCN1C(=O)[C@@H]1CCCC[C@@H]1C(=O)O)c1ccccc1`, the AC40 is > 38 µM (inactive). In the case of `COc1ccc(CCN=C2C=C(NS(=O)(=O)c3c(C)cc(C)cc3C)c3ccccc3C2=O)cc1`, the activation is 5.19% (inactive).
